Reference: US8741932B2, “Imidazopyridine derivatives” (Piramal Enterprises Limited, priority 2009, dated 2014)

Experiments:
[1] = target: T1, mTOR (Homo sapiens, UniProt P42345); experiment: mTOR activity assay (cell ELISA, Phospho-AKT Ser 473, A2780 cells); format: cell-based; settings: 1 μM, read-out: % Inhibition of mTOR activity at 1 μM
T1 construct: endogenous in cells; host or cells: A2780 ovarian cell line (ATCC)
Description: Seed cells (Ovarian cell line A2780, ATCC) were plated in a 96 well microtitre plate at a density of 50,000 cells/cm^2 in appropriate complete cell culture medium. The cells were allowed to adhere for 18-24 hours. The cells were allowed to starve for 24 hours. […] Then the cells were stimulated with 20% FCS for 30 minutes. A typical assay would consist of a set of unstimulated cells, a set of stimulated cells and a set of cells treated with compounds of present invention and a set of cells treated with the stimulator. The medium was discarded. The cells were fixed with 100 μL of 3.7% formaldehyde for 15 minutes. The formaldehyde was discarded by inverting the plate and tapping it on a thick tissue paper layer to remove traces. The cells were washed and permeabilized with 200 μL PBS+Triton-X 100 solution (hereafter referred to as PBS-Triton, containing 0.1% triton-X 100 in 1×PBS) three times, incubating the cells each time for 5 minutes. 100 μL blocking solution (10% FCS in PBS-Triton) was added and incubated for 1 hour at 25° C. The blocking solution was discarded and cells were incubated with the primary antibody in PBS-Triton at a dilution of 1:500 for 1 hour at RT (25° C.). [The primary antibody is Phospho-AKT (Ser 473); Cell Signaling; Cat. No. 9271]. The primary antibody solution was discarded and the cells were washed 3 times with PBS-Triton solution and incubated with the HRP-conjugated secondary antibody in PBS-Triton at a dilution of 1:500 for 1 hour at RT (25° C.). The cells were washed 3 times with PBS-Triton followed by two washes with PBS (to remove traces of triton-X 100). The OPD (o-phenylene diamine dihydrochloride) substrate was prepared for detection of the signal by dissolving one tablet set (two tablets) of SigmaFast OPD (Sigma, Cat No. P9187) in 20 mL distilled water. It should be protected from light. 100 μL OPD solutions was added to the wells and the plate was incubated in the dark for 3-5 minutes (depending upon the development of the color). The reaction was stopped by adding 50 μL 2 N H2SO4. The absorbance was measured at 490 nm. The values were expressed in the treated samples, in terms of percentage or fold decrease in AKT phosphorylation with respect to the induced sample. PI-103 (Calbiochem, USA) was used as a standard.

[2] = test system: MDA MB 468; experiment: Cytotoxicity assay (propidium iodide), MDA MB 468; format: cell-based; settings: Homo sapiens; MDA MB 468 (C6b, breast); 48 hours
Description: (§1) Cells from cell lines as mentioned in the table given below were seeded at a density of 3000 cells/well in a white opaque 96-well plate. Following incubation at 37° C./5% CO2 for a period of 18-24 hours, the cells were treated with various concentrations (stock solution was prepared in DMSO and subsequent dilutions were made in media as per ATCC guidelines) of the representative compounds of present invention (refer table 3) for a period of 48 hours. At the end of treatment, the spent culture medium was discarded, the cells were washed with 1×PBS and 200 μl of 7 μg/ml propidium iodide was added to each well. The plates were frozen at −70° C. for at least 24 hours. For analysis, the plates were brought to RT, allowed to thaw and were read in PolarStar fluorimeter with the fluorescence setting. The percentage of viable cells in the non treated set of wells was considered to be 100 and the percentage viability following treatment was calculated accordingly. IC50 values were calculated from graphs plotted using these percentages.

[3] = test system: H460; experiment: Cytotoxicity assay (propidium iodide), H460; format: cell-based; settings: Homo sapiens, NCI-H460; H460 (C1b, lung); 48 hours
[4] = test system: G361; experiment: Cytotoxicity assay (propidium iodide), G361; format: cell-based; settings: G-361; G361 (C9a, human melanoma); 48 hours
Description: as §1

[5] = test system: MCF7; experiment: Cytotoxicity assay (propidium iodide), MCF7; format: cell-based; settings: Homo sapiens; MCF7 (C6c, breast); 48 hours
Description: as §1

[6] = target: T2, PI3Kα kinase (Homo sapiens, UniProt P42336); experiment: Kinase assay (PI3Kα); format: biochemical; settings: read-out: IC50 (μM) for PI3K inhibition
T2 construct: purchased Millipore, USA
Outline: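 Recombinant PI3Kα (20 ng) phosphorylated 12.5 μg phosphatidylinositol with 10 μM ATP and 1 μCi ^32γ P […] in 10 mM Hepes pH 7.5, 50 mM MgCl2 for 20 min at 30° C. Lipids were extracted with MeOH/CHCl3, resolved by TLC, and labelled PI quantified by autoradiography densitometry; PI-103 served as standard.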

[7] = test system: PC3; experiment: Cytotoxicity assay (propidium iodide), PC3; settings: Homo sapiens, PC-3, 48 h, read-out: IC50 cytotoxicity
Description: as §1

[8] = test system: A549; experiment: Cytotoxicity assay (propidium iodide), A549; format: cell-based; settings: Homo sapiens; A549 (C1a, lung); 48 hours
[9] = test system: A2780; experiment: Cytotoxicity assay (propidium iodide), A2780; format: cell-based; settings: Homo sapiens; A2780 (C3a, ovarian); 48 hours
Description: as §1

[10] = test system: MDA MB 231; experiment: Cytotoxicity assay (propidium iodide), MDA MB 231; format: cell-based; settings: Homo sapiens; MDA MB 231 (C6a, breast); 48 hours
Description: as §1

[11] = test system: HT29; experiment: Cytotoxicity assay (propidium iodide), HT29; format: cell-based; settings: Homo sapiens, HT-29; HT29 (C4a, colon); 48 hours
Description: as §1

[12] = test system: BT 549; experiment: Cytotoxicity assay (propidium iodide), BT 549; format: cell-based; settings: Homo sapiens; BT 549 (C6d, breast); 48 hours
Description: as §1

[13] = test system: IL-6; experiment: Human monocyte assay, LPS-stimulated IL-6; format: cell-based; settings: Monocyte; human monocytes, 1 μg/ml LPS, 5 hours
Outline: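 Adherent human PBMC-derived monocytes (2×10^4/well) were cultured 48 h, preincubated 30 min with compound or 0.5% DMSO, then stimulated with 1 μg/ml E. coli LPS for 5 h at 37° C. TNF-α and IL-6 in supernatants were measured by ELISA.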

T2 sequence (P42336 whole entry): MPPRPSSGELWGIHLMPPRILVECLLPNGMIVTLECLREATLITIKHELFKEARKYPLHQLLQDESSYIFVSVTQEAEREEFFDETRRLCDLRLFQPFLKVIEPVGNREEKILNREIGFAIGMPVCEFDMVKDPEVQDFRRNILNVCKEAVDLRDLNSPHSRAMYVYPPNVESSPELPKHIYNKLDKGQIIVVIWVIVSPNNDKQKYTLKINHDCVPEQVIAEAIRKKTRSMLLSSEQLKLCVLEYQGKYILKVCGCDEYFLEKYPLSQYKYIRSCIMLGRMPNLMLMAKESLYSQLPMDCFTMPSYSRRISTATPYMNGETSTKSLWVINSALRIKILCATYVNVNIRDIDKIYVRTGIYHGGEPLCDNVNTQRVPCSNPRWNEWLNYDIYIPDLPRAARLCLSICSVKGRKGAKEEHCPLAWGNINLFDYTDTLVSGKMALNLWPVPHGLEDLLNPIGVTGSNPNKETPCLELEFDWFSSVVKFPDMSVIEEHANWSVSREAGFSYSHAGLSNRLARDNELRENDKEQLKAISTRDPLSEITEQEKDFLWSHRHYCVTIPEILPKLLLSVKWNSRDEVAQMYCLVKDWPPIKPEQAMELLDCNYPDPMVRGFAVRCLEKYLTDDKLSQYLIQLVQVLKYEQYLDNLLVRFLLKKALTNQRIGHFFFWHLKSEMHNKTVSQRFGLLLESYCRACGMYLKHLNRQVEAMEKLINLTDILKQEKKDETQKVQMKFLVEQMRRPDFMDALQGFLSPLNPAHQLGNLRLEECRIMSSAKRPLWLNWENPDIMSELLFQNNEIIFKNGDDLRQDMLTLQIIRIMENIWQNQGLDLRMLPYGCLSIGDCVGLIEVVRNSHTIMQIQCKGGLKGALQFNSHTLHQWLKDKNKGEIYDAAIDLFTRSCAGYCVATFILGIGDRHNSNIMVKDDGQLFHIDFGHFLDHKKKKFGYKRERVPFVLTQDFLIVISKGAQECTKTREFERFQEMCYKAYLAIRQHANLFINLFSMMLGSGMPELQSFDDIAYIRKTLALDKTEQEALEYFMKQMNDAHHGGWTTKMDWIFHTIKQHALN
T2 sequence (P27986 whole entry partner): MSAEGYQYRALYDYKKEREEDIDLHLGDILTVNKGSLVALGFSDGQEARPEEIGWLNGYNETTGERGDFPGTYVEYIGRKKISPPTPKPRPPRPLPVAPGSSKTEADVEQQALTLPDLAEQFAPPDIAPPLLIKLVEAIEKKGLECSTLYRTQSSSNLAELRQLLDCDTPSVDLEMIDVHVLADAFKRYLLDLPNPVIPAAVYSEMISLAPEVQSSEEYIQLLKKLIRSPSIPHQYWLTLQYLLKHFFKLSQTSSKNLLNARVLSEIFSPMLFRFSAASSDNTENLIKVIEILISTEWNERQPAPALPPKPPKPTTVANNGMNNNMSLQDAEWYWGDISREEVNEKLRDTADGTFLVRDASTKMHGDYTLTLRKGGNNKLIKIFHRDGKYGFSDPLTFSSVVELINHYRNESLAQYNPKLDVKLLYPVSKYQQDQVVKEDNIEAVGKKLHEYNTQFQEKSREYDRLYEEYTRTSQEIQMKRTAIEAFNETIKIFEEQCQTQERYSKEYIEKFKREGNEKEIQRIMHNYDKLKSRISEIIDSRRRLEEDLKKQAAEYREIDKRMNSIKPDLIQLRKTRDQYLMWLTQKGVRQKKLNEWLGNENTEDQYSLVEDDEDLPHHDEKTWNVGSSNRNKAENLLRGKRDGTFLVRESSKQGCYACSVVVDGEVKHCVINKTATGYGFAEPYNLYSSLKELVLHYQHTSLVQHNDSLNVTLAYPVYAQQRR

inhibition at 1 µM [1] [%]	IC50 [6] [µM]	IC50 [13] [µM]	SMILES	IC50 [2] [µM]	IC50 [3] [µM]	IC50 [4] [µM]	IC50 [5] [µM]	IC50 [7] [µM]	IC50 [8] [µM]	IC50 [9] [µM]	IC50 [10] [µM]	IC50 [11] [µM]	IC50 [12] [µM]
30 to 50	0.01 to 0.5		CN(N=Cc1cnc2ccc(-c3cccnc3)cn12)S(=O)(=O)c1cccc(Br)c1 [Example 7, 3-Bromo-N-methyl-N′-((6-(pyridine-3-yl)imidazo[1,2-a]pyridine-3-yl)methylene) benzenesulfonohydrazide]	> 5	> 5	> 5	> 5	> 5	> 5				
			Cc1ccc([N+](=O)[O-])cc1S(=O)(=O)N(C)N=Cc1cnc2ccc(-c3ccncc3)cn12 [Example 85, N, 2-dimethyl-5-nitro-N′-((6-(pyridine-4-yl)imidazo[1,2-a]pyridine-3-yl)methylene) benzenesulfonohydrazide]		0.01 to 5			0.01 to 5	0.01 to 5	0.01 to 5	0.01 to 5	> 5	
	0.01 to 0.5		CN(N=Cc1cnc2ccc(-c3cccnc3)cn12)S(=O)(=O)c1ccc(F)c(Cl)c1 [Example 18, 3-Chloro-4-fluoro-N-methyl-N′-((6-(pyridine-3-yl)imidazo[1,2-a]pyridine-3-yl)methylene) benzenesulfonohydrazide]	> 5	> 5	> 5	> 5	> 5	> 5				
30 to 50	0.01 to 0.5	≥ 5	CN(N=Cc1cnc2ccc(-c3cccnc3)cn12)S(=O)(=O)c1ccc(C#N)cc1 [Example 11, 4-Cyano-N-methyl-N′-((6-(pyridine-3-yl)imidazo[1,2-a]pyridine-3-yl)methylene)benzenesulfonohydrazide]	> 5	> 5			> 5	> 5	> 5			> 5
	0.01 to 0.5		Cc1cc(C)c(S(=O)(=O)N(C)N=Cc2cnc3ccc(-c4cccnc4)cn23)c(C)c1 [Example 27, N, 2,4,6-tetramethyl-N′-((6-(pyridine-3-yl)imidazo[1,2-a]pyridine-3-yl)methylene)benzenesulfonohydrazide]	> 5	> 5	> 5	> 5	> 5	> 5				
			CN(N=Cc1cnc2ccc(-c3cccnc3)cn12)S(=O)(=O)C1CCCCC1 [Example 31, N-methyl-N′-((6-(pyridine-3-yl)imidazo[1,2-a]pyridine-3-yl)methylene) cyclohexanesulfonohydrazide]		0.01 to 5			0.01 to 5	0.01 to 5	0.01 to 5	0.01 to 5	> 5	
